Where two headings read alike, the source gives them in different places.

Holding throughout (format): cell-based
One experiment has as its target T1, Or47a/Or83b (Drosophila melanogaster, UniProt P81921+Q9VNB5).
T1 construct: Full-length cDNAs for mosquito (Anopheles gambiae) odorant receptor (OR1, OR2, OR7, OR8, OR28), and fly (Drosophila melanogaster) odorant receptor (Or47a, Or83b); expressed in transfected cells
T1 sequence (P81921 1-385): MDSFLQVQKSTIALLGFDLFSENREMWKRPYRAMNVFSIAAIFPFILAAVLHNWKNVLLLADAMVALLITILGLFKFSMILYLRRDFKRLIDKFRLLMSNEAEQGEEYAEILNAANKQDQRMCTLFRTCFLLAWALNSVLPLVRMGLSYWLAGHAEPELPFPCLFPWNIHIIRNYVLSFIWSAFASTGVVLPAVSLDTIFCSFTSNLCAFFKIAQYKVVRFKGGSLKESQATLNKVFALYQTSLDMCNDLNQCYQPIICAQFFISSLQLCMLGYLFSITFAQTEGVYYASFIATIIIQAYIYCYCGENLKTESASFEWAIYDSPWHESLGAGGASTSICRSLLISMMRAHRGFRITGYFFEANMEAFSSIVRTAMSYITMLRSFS
T1 sequence (Q9VNB5 1-486): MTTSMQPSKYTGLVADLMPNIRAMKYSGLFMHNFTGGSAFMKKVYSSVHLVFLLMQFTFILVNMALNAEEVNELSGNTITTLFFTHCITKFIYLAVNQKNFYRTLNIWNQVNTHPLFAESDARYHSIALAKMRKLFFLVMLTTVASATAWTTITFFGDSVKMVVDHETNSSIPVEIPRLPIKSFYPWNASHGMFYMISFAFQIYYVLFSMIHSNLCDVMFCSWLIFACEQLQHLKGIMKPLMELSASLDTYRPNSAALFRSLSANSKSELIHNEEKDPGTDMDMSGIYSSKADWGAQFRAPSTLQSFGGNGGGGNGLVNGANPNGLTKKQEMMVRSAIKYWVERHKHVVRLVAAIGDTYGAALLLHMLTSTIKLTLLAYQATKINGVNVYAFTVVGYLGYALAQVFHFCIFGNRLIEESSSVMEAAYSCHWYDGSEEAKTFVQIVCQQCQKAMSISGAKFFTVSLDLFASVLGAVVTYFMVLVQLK
Put plainly: Ca2+-imaging of stable Flip-In T-Rex cell line Or47a/Or83b. The following applies: for inhibition at 4 µM: read-out: Percent Inhibition OR47a OR83b. The gist of the method: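 Calcium responses were read on an FDSS6000 (485 nm excitation, 525 nm emission) after Ca-4 loading for 1.5 h at room temperature. Cells were tetracycline-induced Flp-In T-REx lines stably carrying fly Or47a/Or83b or mouse 5HT3, plated 2 days ahead; compounds were co-delivered in HBSS odorant solution.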

The target in another experiment is T2, TRP channel (TRPM8) (Mus musculus, UniProt Q8R4D5).
T2 construct: Full-length cDNAs for mosquito (Anopheles gambiae) odorant receptor (OR1, OR2, OR7, OR8, OR28), and fly (Drosophila melanogaster) odorant receptor (Or47a, Or83b), mouse TRP channel (TRPM8); expressed in transfected cells
Put plainly: Ca2+-imaging of stable HEK293T cell line TRPM8. The following applies: for inhibition at 4 µM: HEK-293T, read-out: Percent Inhibition TRPM8; for IC50: ligand menthol 300 μM, read-out: IC50 TRPM8. The gist of the method:
(§1)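 Fluorescence calcium imaging on stable HEK293T cells expressing mosquito OR paired with Orco-type OR7, or mouse TRPM8. Test compounds are premixed into HBSS odorant solutions and applied to Ca-4-loaded cells; emission at 525 nm (excitation 485 nm) reports Ca2+ influx.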

A further experiment addresses OR28/OR7 (Anopheles gambiae, UniProt A0A1S4GFY3+Q7QCC7). Put plainly: Ca2+-imaging of stable HEK293T cell line OR28/OR7. Particulars: for inhibition at 4 µM: HEK-293T, read-out: Percent Inhibition OR28 OR7. The gist of the method:
as §1

The mark [1] stands for this setting: ligand pentyl acetate 30 μM, read-out: IC50 OR47a OR83b.

OR28/OR7, sequence (A0A1S4GFY3 entry or part of it): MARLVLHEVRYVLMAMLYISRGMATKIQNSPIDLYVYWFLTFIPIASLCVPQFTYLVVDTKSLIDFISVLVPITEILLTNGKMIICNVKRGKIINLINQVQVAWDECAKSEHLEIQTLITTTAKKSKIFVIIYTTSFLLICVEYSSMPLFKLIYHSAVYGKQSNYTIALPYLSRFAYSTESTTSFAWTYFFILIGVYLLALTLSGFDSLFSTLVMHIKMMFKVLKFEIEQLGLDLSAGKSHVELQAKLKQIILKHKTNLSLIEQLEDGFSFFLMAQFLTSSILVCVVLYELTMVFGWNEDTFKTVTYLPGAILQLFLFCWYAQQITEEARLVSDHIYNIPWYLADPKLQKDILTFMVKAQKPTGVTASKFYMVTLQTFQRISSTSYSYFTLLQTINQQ
OR28/OR7, sequence (Q7QCC7 whole entry): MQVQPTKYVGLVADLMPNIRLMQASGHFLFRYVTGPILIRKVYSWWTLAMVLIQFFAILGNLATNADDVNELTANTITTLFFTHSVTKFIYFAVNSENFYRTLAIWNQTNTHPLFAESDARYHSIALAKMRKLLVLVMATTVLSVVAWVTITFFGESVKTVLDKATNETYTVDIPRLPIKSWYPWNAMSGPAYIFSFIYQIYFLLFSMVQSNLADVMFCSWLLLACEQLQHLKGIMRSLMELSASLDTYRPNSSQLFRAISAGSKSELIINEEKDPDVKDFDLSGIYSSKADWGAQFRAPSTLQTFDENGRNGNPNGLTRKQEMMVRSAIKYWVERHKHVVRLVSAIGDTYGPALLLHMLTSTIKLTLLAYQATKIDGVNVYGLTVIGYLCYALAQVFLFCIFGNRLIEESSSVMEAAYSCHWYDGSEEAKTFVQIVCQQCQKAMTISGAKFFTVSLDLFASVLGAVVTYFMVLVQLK
T2 sequence (Q8R4D5 whole entry): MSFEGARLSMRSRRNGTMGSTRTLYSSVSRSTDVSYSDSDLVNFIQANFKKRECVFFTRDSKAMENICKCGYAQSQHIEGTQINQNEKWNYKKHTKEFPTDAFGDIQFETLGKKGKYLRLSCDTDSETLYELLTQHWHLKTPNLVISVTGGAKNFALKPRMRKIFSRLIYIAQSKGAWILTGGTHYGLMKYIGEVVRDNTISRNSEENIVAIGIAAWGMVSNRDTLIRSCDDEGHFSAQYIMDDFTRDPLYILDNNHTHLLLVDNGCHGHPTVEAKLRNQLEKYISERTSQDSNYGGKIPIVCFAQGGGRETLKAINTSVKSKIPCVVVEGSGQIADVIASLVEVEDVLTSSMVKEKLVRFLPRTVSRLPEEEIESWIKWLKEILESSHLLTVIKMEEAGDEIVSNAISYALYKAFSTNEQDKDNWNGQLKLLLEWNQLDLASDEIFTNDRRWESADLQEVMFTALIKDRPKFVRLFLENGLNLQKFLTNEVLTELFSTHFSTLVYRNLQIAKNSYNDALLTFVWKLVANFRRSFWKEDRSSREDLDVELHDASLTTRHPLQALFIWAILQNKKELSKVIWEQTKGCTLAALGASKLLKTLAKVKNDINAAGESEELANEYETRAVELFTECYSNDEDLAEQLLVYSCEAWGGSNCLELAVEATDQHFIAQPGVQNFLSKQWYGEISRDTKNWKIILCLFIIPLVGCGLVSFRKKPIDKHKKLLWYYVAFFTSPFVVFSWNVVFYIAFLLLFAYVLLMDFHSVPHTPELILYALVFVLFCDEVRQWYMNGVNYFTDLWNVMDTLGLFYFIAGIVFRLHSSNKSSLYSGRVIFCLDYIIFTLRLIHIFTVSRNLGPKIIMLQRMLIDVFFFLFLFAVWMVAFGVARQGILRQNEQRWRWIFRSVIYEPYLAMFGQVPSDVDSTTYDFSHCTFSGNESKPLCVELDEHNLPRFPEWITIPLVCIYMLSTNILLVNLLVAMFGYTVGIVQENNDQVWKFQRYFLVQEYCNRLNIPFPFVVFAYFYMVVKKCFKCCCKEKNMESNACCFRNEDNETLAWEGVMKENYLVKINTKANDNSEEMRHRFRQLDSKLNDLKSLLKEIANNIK

What is called inhibition is the share of the control response that was lost under treatment. Usually IC50 stands for the midpoint of a concentration-inhibition curve. Regarding `COc1ccc(OCC(=O)N2CCOC(Cc3ccccc3)C2)cc1` (stereo not shown) [RU-0050384], the inhibition at 4 µM was 26 to 50% on Or47a/Or83b (compound applied at 4 μM), < 25% at TRP channel (TRPM8) (compound applied at 4 μM) and > 75% at OR28/OR7 (compound applied at 4 μM). Further, the IC50 at OR28/OR7 (Table B, read-out: IC50 OR28) fell in the range of 100 to 1000 nM.
Turning to `COCCN(Cc1c(-c2ccccc2)noc1N(C)C1CCCCC1)C(=O)c1ccccc1OC` [RU-0037275], the IC50 was > 1000 nM at Or47a/Or83b (Table B, read-out: IC50 OR47a) and < 100 nM on OR28/OR7 (Table B, read-out: IC50 OR28). For the same compound, the inhibition at 4 µM on Or47a/Or83b (compound applied at 4 μM) was 51 to 74%; at TRP channel (TRPM8) (compound applied at 4 μM), < 25%; at OR28/OR7 (compound applied at 4 μM), > 75%.
The matching figures for `CN(C)c1ccc(C(=O)N2CCOC(COCc3ccccc3F)C2)cc1` (stereo not shown) [RU-0050325]: > 1000 nM, < 100 nM, 26 to 50%, < 25% and > 75%.
Regarding `CCNc1nc(NCC)nc(SC)n1` [RU-T4], the IC50 on Or47a/Or83b (setting [1]), on TRP channel (TRPM8) and at OR28/OR7 was > 20000 nM each time.
As to `CCN(CC)C(=O)Oc1ccc2c(ccn2Cc2ccccc2Cl)c1NC(=O)CCCCC(=O)OC` [RU-0075446], the inhibition at 4 µM on Or47a/Or83b was < 25%; at TRP channel (TRPM8), < 25%; at OR28/OR7, > 75%. Besides, the IC50 on OR28/OR7 is < 100 nM.
Turning to `Cc1nn(-c2ccc(Cl)cc2)c(C)c1C(=O)NCc1ccccn1` [RU-0048608], the figures for the inhibition at 4 µM at Or47a/Or83b (compound applied at 4 μM), at TRP channel (TRPM8) (compound applied at 4 μM) and on OR28/OR7 (compound applied at 4 μM) were 26 to 50%, < 25% and > 75%, respectively. Also, the IC50 on OR28/OR7 (Table B, read-out: IC50 OR28) was < 100 nM.
The matching figures for `Cc1ccccc1C(=O)N[C@@H]1CCCCC1NC(=O)C1CCN(C(=O)c2cc(C(F)(F)F)cc(C(F)(F)F)c2)CC1` (stereo partly shown) [RU-0045778]: 26 to 50%, < 25%, 51 to 74% and < 100 nM.
The matching figures for `CCN(CC)c1onc(-c2ccccc2)c1CN(CC1CCCO1)C(=O)c1ccco1` (stereo not shown) [RU-0036855]: 26 to 50%, 26 to 50%, > 75% and < 100 nM.
The matching figures for `CCCCCCCC(=O)N1CCCC(C(=O)NC2CCCC[C@H]2NC(=O)c2ccccc2C)C1` (stereo partly shown) [RU-0045756]: 26 to 50%, < 25%, 51 to 74% and > 1000 nM.
As to `COc1ccccc1CCC(=O)N1CCC(CCC(=O)Nc2ccccc2)CC1` [RU-0032455], the IC50 on Or47a/Or83b (Table B, read-out: IC50 OR47a) was > 1000 nM; at OR28/OR7 (Table B, read-out: IC50 OR28), < 100 nM. Also, the results for the inhibition at 4 µM on Or47a/Or83b (compound applied at 4 μM), on TRP channel (TRPM8) (compound applied at 4 μM) and on OR28/OR7 (compound applied at 4 μM) were 51 to 74%, < 25% and > 75%, respectively.
Consider `Cc1cccc(Cn2ccnc2CN(C(=O)c2ccccc2F)C2CCCCC2)c1` [RU-0047851], for which the results for the inhibition at 4 µM on Or47a/Or83b (compound applied at 4 μM), on TRP channel (TRPM8) (compound applied at 4 μM) and on OR28/OR7 (compound applied at 4 μM) were 26 to 50%, < 25% and 26 to 50%, respectively. Moreover, the IC50 at OR28/OR7 (Table B, read-out: IC50 OR28) is < 100 nM.
Take `CC(C)N(Cc1nccn1Cc1c(F)cccc1Cl)C(=O)c1ccc(Cl)cc1` [RU-0055364]: the results for the inhibition at 4 µM on Or47a/Or83b (compound applied at 4 μM), on TRP channel (TRPM8) (compound applied at 4 μM) and at OR28/OR7 (compound applied at 4 μM) were 26 to 50%, < 25% and > 75%, respectively. For the same compound, the IC50 on OR28/OR7 (Table B, read-out: IC50 OR28) is < 100 nM.
In the same order, the values of `Cc1ccccc1C(=O)N[C@@H]1CCCCC1NC(=O)C1CCCN(S(=O)(=O)c2cc(Cl)ccc2Cl)C1` (stereo partly shown) [RU-0045691] are 26 to 50%, < 25%, > 75% and < 100 nM.
On to `Fc1cccc(Cl)c1Cn1ccnc1CN(CC1CCCC1)C1CC1` [RU-I4], for which the IC50 on Or47a/Or83b (setting [1]) was > 20000 nM; at TRP channel (TRPM8), > 20000 nM; at OR28/OR7 (ligand acetophenone 300 μM, read-out: IC50 OR28 OR7), 2000 to 20000 nM.
Take `Cc1ccccc1C(=O)N[C@@H]1CCCCC1NC(=O)C1CCN(C(=O)C23CC4CC(CC(C4)C2)C3)CC1` (stereo partly shown) [RU-0045351]: the inhibition at 4 µM is 26 to 50% on Or47a/Or83b (compound applied at 4 μM), < 25% on TRP channel (TRPM8) (compound applied at 4 μM) and > 75% on OR28/OR7 (compound applied at 4 μM). Further, the IC50 on OR28/OR7 (Table B, read-out: IC50 OR28) is < 100 nM.
